Like-named read-outs stand apart in the source and are kept apart here. Peptide text beside a SMILES is read from it.
Assays:
[1] = A. calcoaceticus AC002, agarose dilution
[2] = E. cloacae ECL007, agarose dilution
[3] = E. coli ECO005, agarose dilution
[4] = E. faecalis EFS001, agarose dilution
[5] = E. faecalis EFS008, agarose dilution
[6] = K. pneumoniae KP001, agarose dilution
[7] = P. aeruginosa PA004, agarose dilution
[8] = S. aureus SA014, agarose dilution
[9] = S. aureus SA093, agarose dilution
[10] = S. epidermidis SE010, agarose dilution
[11] = S. maltophilia SMA002, agarose dilution
[12] = S. marcescens SMS003, agarose dilution

In the case of CC[C@H](C)[C@H](NC(=O)[C@H](CC(C)C)NC(=O)[C@H](C)NC(=O)[C@@H]1CCCN1C(=O)[C@H](CC(C)C)NC(=O)[C@H](C)NC(=O)[C@@H](NC(=O)[C@@H](NC(=O)[C@@H](NC(=O)[C@@H](NC(=O)[C@H](CCCCN)NC(=O)[C@H](CCCCN)NC(=O)[C@H](CC(C)C)NC(=O)[C@@H](NC(=O)[C@H](CCCCN)NC(=O)[C@@H](NC(=O)[C@H](CC(C)C)NC(=O)[C@H](CC(N)=O)NC(=O)[C@H](CCCCN)NC(=O)[C@@H](NC(=O)[C@H](Cc1ccccc1)NC(=O)[C@H](CO)NC(=O)[C@H](CCCCN)NC(=O)[C@H](Cc1c[nH]c2ccccc12)NC(=O)[C@@H](N)CCCCN)[C@@H](C)CC)[C@@H](C)O)C(C)C)C(C)C)C(C)C)[C@@H](C)O)[C@@H](C)O)C(=O)N[C@@H](CO)C(=O)O [MBI 29A2, KWKSFIKNLTKVLKKVVTTALPALIS] (H-KWKSFIKNLTKVLKKVVTTALPALIS-OH; N-terminus and C-terminus assumed), the “Peptide MI Alone” value (bacterial isolates; P. aeruginosa PA24 (Ciprofloxacin section)) is reported as 64 µg/mL, the “Peptide MI Alone” value (bacterial isolates; S. aureus SA10 (Ciprofloxacin section)) is reported as 4 µg/mL and the “Peptide MI Alone” value (bacterial isolates; S. aureus SA93 (Ciprofloxacin section)) is reported as 2 µg/mL.
With I L K K F P F W P W R R K [MBI 11A7CN] the MIC (bacteria; [1]) was 4 µg/mL, the MIC (bacteria; [2]) was over 128 µg/mL and the MIC (bacteria; [3]) was 8 µg/mL. It also gave an MIC (bacteria; [4]) of 2 µg/mL, an MIC (bacteria; E. faecalis EFS002) of 16 µg/mL and an MIC (bacteria; [5]) of 4 µg/mL. For the same compound, the MIC (bacteria; E. faecium EFM003) was 2 µg/mL, the MIC (bacteria; [6]) was 8 µg/mL and the MIC (bacteria; [7]) was over 128 µg/mL. For the same compound, the MIC (bacteria; S. aureus SA009) was 2 µg/mL, the MIC (bacteria; [8]) was 4 µg/mL and the MIC (bacteria; [9]) was 1 µg/mL. The MIC (bacteria; [10]) was 4 µg/mL, the MIC (bacteria; [11]) was 64 µg/mL and the MIC (bacteria; [12]) was over 28 µg/mL.
For I L K K W P W P W R R K [MBI 11A4CN], the MIC (bacteria; A. calcoaceticus AC002) was 8 µg/mL, the MIC (bacteria; E. cloacae ECL007) was over 128 µg/mL and the MIC (bacteria; E. coli ECO003) was 32 µg/mL. It also gave an MIC (bacteria; E. faecalis EFS002) of 64 µg/mL, an MIC (bacteria; E. faecium EFM001) of 32 µg/mL and an MIC (bacteria; K. pneumoniae KP001) of over 128 µg/mL. The MIC (bacteria; P. aeruginosa PA004) was over 128 µg/mL, the MIC (bacteria; S. aureus SA005) was 2 µg/mL and the MIC (bacteria; S. epidermidis SE002) was 8 µg/mL. For the same compound, the MIC (bacteria; S. maltophilia SMA002) was over 128 µg/mL and the MIC (bacteria; S. marcescens SMS004) was over 128 µg/mL.
I L K K W P W W P W R R K [MBI 11ACN] showed an MIC (bacteria; A. calcoaceticus AC002) of 2 µg/mL, an MIC (bacteria; E. cloacae ECL007) of over 128 µg/mL and an MIC (bacteria; E. coli ECO005) of 16 µg/mL. The MIC (bacteria; E. faecalis EFS004) was 8 µg/mL, the MIC (bacteria; E. faecalis EFS008) was 64 µg/mL and the MIC (bacteria; K. pneumoniae KP001) was 16 µg/mL. It also gave an MIC (bacteria; P. aeruginosa PA004) of over 128 µg/mL, an MIC (bacteria; S. aureus SA014) of 8 µg/mL and an MIC (bacteria; S. epidermidis SE010) of 4 µg/mL. For the same compound, the MIC (bacteria; S. maltophilia SMA002) was 64 µg/mL and the MIC (bacteria; S. marcescens SMS003) was over 128 µg/mL.
Work on L R W W W P W R R K [MBI 11G25CN] yielded an MIC (bacteria; [1]) of 2 µg/mL, an MIC (bacteria; [2]) of over 128 µg/mL and an MIC (bacteria; [3]) of 8 µg/mL. It also gave an MIC (bacteria; [4]) of 2 µg/mL, an MIC (bacteria; [5]) of 16 µg/mL and an MIC (bacteria; [6]) of 16 µg/mL. The MIC (bacteria; [7]) was 64 µg/mL, the MIC (bacteria; [8]) was 2 µg/mL and the MIC (bacteria; [9]) was 1 µg/mL. For the same compound, the MIC (bacteria; [10]) was 2 µg/mL, the MIC (bacteria; [11]) was 32 µg/mL and the MIC (bacteria; [12]) was over 128 µg/mL.
Compound I L R R W P W W P W R R R [MBI 11B9ACN] has an MIC (bacteria; A. calcoaceticus AC001) of 32 µg/mL, an MIC (bacteria; E. coli ECO003) of 8 µg/mL and an MIC (bacteria; E. faecalis EFS004) of 8 µg/mL. It also gave an MIC (bacteria; E. faecium EFM001) of 4 µg/mL, an MIC (bacteria; K. pneumoniae KP002) of 32 µg/mL and an MIC (bacteria; P. aeruginosa PA005) of over 128 µg/mL. For the same compound, the MIC (bacteria; S. aureus SA019) was 2 µg/mL, the MIC (bacteria; S. epidermidis SE002) was 2 µg/mL and the MIC (bacteria; S. maltophilia SMA001) was 16 µg/mL. The MIC (bacteria; S. marcescens SMS004) was over 128 µg/mL.
In the case of I L K K W P W W P W R R K [MBI 11M4], the MIC (bacteria; E. faecalis EFS001) is reported as 32 µg/mL, the MIC (bacteria; E. faecium EFM001) is reported as 32 µg/mL and the MIC (bacteria; S. aureus SA008) is reported as 8 µg/mL.
With I L K K W P W [MBI 11D10M8] the MIC (bacteria; E. faecalis EFS002) was 32 µg/mL, the MIC (bacteria; E. faecium EFM003) was 32 µg/mL and the MIC (bacteria; S. aureus SA008) was 32 µg/mL.
Work on I L K K I P I I P I R R K [MBI 11A2CN] yielded an MIC (bacteria; A. calcoaceticus AC001) of over 128 µg/mL, an MIC (bacteria; E. cloacae ECL007) of over 128 µg/mL and an MIC (bacteria; E. coli ECO003) of over 128 µg/mL. For the same compound, the MIC (bacteria; E. faecalis EFS002) was over 128 µg/mL, the MIC (bacteria; E. faecium EFM003) was 16 µg/mL and the MIC (bacteria; K. pneumoniae KP002) was over 128 µg/mL. For the same compound, the MIC (bacteria; P. aeruginosa PA004) was over 128 µg/mL, the MIC (bacteria; S. aureus SA004) was 8 µg/mL and the MIC (bacteria; S. maltophilia SMA001) was over 128 µg/mL. It also gave an MIC (bacteria; S. marcescens SMS003) of over 128 µg/mL.
For P W W P W R R K [MBI 11D3CN], the MIC (bacteria; A. calcoaceticus AC001) was over 128 µg/mL, the MIC (bacteria; E. cloacae ECL007) was over 128 µg/mL and the MIC (bacteria; E. coli ECO002) was 64 µg/mL. The MIC (bacteria; E. faecalis EFS002) was 32 µg/mL, the MIC (bacteria; E. faecium EFM003) was 8 µg/mL and the MIC (bacteria; K. pneumoniae KP002) was over 128 µg/mL. For the same compound, the MIC (bacteria; P. aeruginosa PA024) was over 128 µg/mL, the MIC (bacteria; S. aureus SA009) was 8 µg/mL and the MIC (bacteria; S. maltophilia SMA001) was 64 µg/mL. It also gave an MIC (bacteria; S. marcescens SMS004) of over 128 µg/mL.
With W W K K W P W W P W R R K [MBI 11C5CN] the MIC (bacteria; A. calcoaceticus AC001) was 32 µg/mL, the MIC (bacteria; E. cloacae ECL007) was over 128 µg/mL and the MIC (bacteria; E. coli ECO001) was 8 µg/mL. The MIC (bacteria; E. faecalis EFS002) was 16 µg/mL, the MIC (bacteria; E. faecium EFM003) was 2 µg/mL and the MIC (bacteria; K. pneumoniae KP002) was 16 µg/mL. For the same compound, the MIC (bacteria; P. aeruginosa PA003) was 64 µg/mL, the MIC (bacteria; S. aureus SA009) was 2 µg/mL and the MIC (bacteria; S. epidermidis SE002) was 2 µg/mL. For the same compound, the MIC (bacteria; S. maltophilia SMA002) was 16 µg/mL and the MIC (bacteria; S. marcescens SMS004) was over 28 µg/mL.
